From patent US12636297B2, “Boronic acid derivatives and therapeutic uses thereof” (priority 2019, dated 2026)
Like-named read-outs stand apart in the source and are kept apart here.

Key:
[1] = tested on: carbapenem resistant Enterobacteriaceae (CRE); assay: MIC of antibiotics with Compound 1 against panel of 510 CRE clinical isolates; format: cell-based; settings: for MIC50 / MIC90: antibiotic alone
Protocol: In this example, the antibiotics meropenem, cefepime, ceftolozane and cefiderocol, were tested in combination with Compound 1 at 4 μg/ml and 8 μg/ml against a panel of 510 clinical isolates representing various types of carbapenem resistant Enterobacteriaceae (CRE). Cefiderocol was tested at standard conditions, in […] media.

[2] = tested on: carbapenem resistant Acinetobacter baumannii; assay: MIC of antibiotics with Compound 1 against panel of 503 carbapenem resistant Acinetobacter baumannii clinical isolates; format: cell-based; settings: for MIC50 / MIC90: carbapenem resistant Acinetobacter baumannii (N = 503), antibiotic alone
Protocol: In another experiment, various antibiotics, meropenem, cefepime, ceftolozane and cefiderocol, were tested in combination with Compound 1 at 4 μg/ml and 8 μg/ml against the panel of 503 clinical isolates of carbapenem resistant Acinetobacter baumannii. […] Cefiderocol was tested at standard conditions, in […] media.

[3] = tested on: P. aeruginosa; assay: Susceptibility testing of 262 P. aeruginosa strains with meropenem MIC >2 μg/mL; format: cell-based, Pseudomonas aeruginosa; settings: Compound 1 at 8 μg/mL; for % of susceptible organisms at breakpoints: breakpoints ≤8 μg/mL meropenem and cefepime, ≤4 μg/mL ceftolozane, ≤16 μg/mL piperacillin
Protocol: (§1) In addition, 509 Carbapenem-Resistant Enterobacteriaceae were tested with meropenem, cefepime, and ceftolozane alone and in combination with Compound 1 at 8 μg/mL. Furthermore, 262 strains of P. aeruginosa with a meropenem MIC>2 μg/mL were tested with meropenem, ceftolozane, cefepime and piperacillin alone and in combination with Compound 1 at 8 μg/mL.
262 strains of P. aeruginosa having a meropenem MIC greater than 2 μg/mL were tested with meropenem, ceftolozane, cefepime and piperacillin alone and Compound 1 at 8 μg/mL.

[4] = tested on: carbapenem-resistant (CR) Acinetobacter baumannii (AB); assay: Broth microdilution MIC of β-lactams alone and with Compound 1 against carbapenem-resistant Acinetobacter baumannii clinical isolates; format: cell-based; settings: for MIC: SUL alone; for % susceptible, [S]: breakpoints MER ≤8 μg/mL, TOL ≤4 μg/mL
Protocol: (§2) In this example the in vitro activity of Compound 1 was evaluated in combination with several β-lactams including sulbactam, meropenem, and ceftolozane against clinical isolates of carbapenem-resistant (CR) Acinetobacter baumannii (AB) and Pseudomonas aeruginosa (PA).

[5] = tested on: Pseudomonas aeruginosa (PA); assay: Broth microdilution MIC of β-lactams alone and with Compound 1 against Pseudomonas aeruginosa clinical isolates (representative and challenge panels); format: cell-based; settings: for Minimum Inhibitory Concentration Distribution, % of isolates: representative panel of PA (N = 500), without Compound 1, AVI and TAZ at 4 μg/mL; for % susceptible, [S] / MIC50 / MIC90: Compound 1, AVI, and TAZ at fixed 4 μg/mL; for % susceptible, [S]: breakpoints MER ≤8, TOL ≤4, CAZ ≤8 μg/mL; for MIC50 / MIC90: Pseudomonas aeruginosa
Protocol: as §2

[6] = tested on: Carbapenem-Resistant Enterobacteriaceae; assay: MIC distribution for 509 Carbapenem-Resistant Enterobacteriaceae (FIG. 2); format: cell-based; settings: Compound 1 at 8 μg/mL
Protocol: as §1
The MIC distribution of combinations of Compound 1 with meropenem, cefepime and cetolozane alone, or with Compound 1 at 8 μg/mL for Carbapenem-Resistant Enterobacteriaceae were tested.

[7] = non-carbapenemase producing CRE, N = 45
[8] = CRAB (300), Compound 1 at fixed 4 μg/mL

SMILES: CC(C)(O/N=C(\C(=O)N[C@@H]1C(=O)N2C(C(=O)[O-])=C(C[N+]3(CCNC(=O)c4ccc(O)c(O)c4Cl)CCCC3)CS[C@H]12)c1csc(N)n1)C(=O)O [DER, cefiderocol]
- MIC50 ([1]; CRE KPC, N = 168): 2 µg/mL
- MIC90 ([1]; CRE KPC, N = 168): 32 µg/mL
- MIC50 ([1]; CRE MBL, N = 145): 8 µg/mL
- MIC90 ([1]; CRE MBL, N = 145): > 32 µg/mL
- MIC50 ([1]; CRE OXA, N = 152): 1 µg/mL
- MIC90 ([1]; CRE OXA, N = 152): 8 µg/mL
- MIC50 [1, 7]: 2 µg/mL
- MIC90 [1, 7]: 32 µg/mL
- MIC50 [2]: 1 µg/mL
- MIC90 [2]: 32 µg/mL

SMILES: CO/N=C(\C(=O)N[C@@H]1C(=O)N2C(C(=O)[O-])=C(C[N+]3(C)CCCC3)CS[C@H]12)c1csc(N)n1 [FEP, cefepime]
- % of susceptible organisms at breakpoints ([3]; All strains (N = 262), meropenem MIC >2 μg/mL): 20%
- % of susceptible organisms at breakpoints ([3]; MBL (N = 56)): 4%
- % of susceptible organisms at breakpoints ([3]; No MBL (N = 206)): 24%
- MIC50 ([1]; CRE KPC, N = 168): 32 µg/mL
- MIC90 ([1]; CRE KPC, N = 168): > 32 µg/mL
- MIC50 ([1]; CRE MBL, N = 145): > 32 µg/mL
- MIC90 ([1]; CRE MBL, N = 145): > 32 µg/mL
- MIC50 ([1]; CRE OXA, N = 152): > 32 µg/mL
- MIC90 ([1]; CRE OXA, N = 152): > 32 µg/mL
- MIC50 [1, 7]: > 32 µg/mL
- MIC90 [1, 7]: > 32 µg/mL
- MIC50 [2]: > 32 µg/mL
- MIC90 [2]: > 32 µg/mL

SMILES: CC1(C)[C@H](C(=O)O)N2C(=O)C[C@H]2S1(=O)=O [SUL, sulbactam]
- MIC50 ([4]; Acinetobacter baumannii): > 32 µg/mL
- MIC90 ([4]; Acinetobacter baumannii): > 32 µg/mL
- MIC ([4]; Acinetobacter baumannii, read-out: Minimum Inhibitory Concentration, AB1144 (NDM-1)): > 64 µg/mL
- MIC ([4]; Acinetobacter baumannii, read-out: Minimum Inhibitory Concentration, AB1192 (OXA-24, OXA-72)): 32 µg/mL
- MIC ([4]; Acinetobacter baumannii, read-out: Minimum Inhibitory Concentration, AB1223 (OXA-72)): 4 µg/mL
- MIC ([4]; Acinetobacter baumannii, read-out: Minimum Inhibitory Concentration, AB1227 (OXA-23)): 64 µg/mL
- MIC ([4]; Acinetobacter baumannii, read-out: Minimum Inhibitory Concentration, AB1244 (OXA-23)): 64 µg/mL
- MIC ([4]; Acinetobacter baumannii, read-out: Minimum Inhibitory Concentration, AB1291 (KPC-2)): > 64 µg/mL
- MIC ([4]; Acinetobacter baumannii, read-out: Minimum Inhibitory Concentration, AB1307 (OXA-23)): 32 µg/mL
- MIC ([4]; Acinetobacter baumannii, read-out: Minimum Inhibitory Concentration, AB1333 (OXA-239)): 16 µg/mL
- MIC ([4]; Acinetobacter baumannii, read-out: Minimum Inhibitory Concentration, AB1358 (NDM-1)): > 64 µg/mL
- MIC ([4]; Acinetobacter baumannii, read-out: Minimum Inhibitory Concentration, AB1359 (NDM-1)): > 64 µg/mL

SMILES: Cn1c(N)c(NC(=O)NCCN)c[n+]1CC1=C(C(=O)O)N2C(=O)[C@@H](NC(=O)/C(=N\OC(C)(C)C(=O)[O-])c3nsc(N)n3)[C@H]2SC1 [TOL, ceftolozane]
- % susceptible, [S] ([4]; AB CP (100), defined carbapenemases, Compound 1 at fixed 4 μg/mL): (0.0) %
- MIC50 ([4]; Acinetobacter baumannii, AB CP (100), defined carbapenemases, Compound 1 at fixed 4 μg/mL, read-out: MIC50): > 32 µg/mL
- MIC90 ([4]; Acinetobacter baumannii, AB CP (100), defined carbapenemases, Compound 1 at fixed 4 μg/mL, read-out: MIC90): > 32 µg/mL
- MIC50 [4, 8]: >32/>32 μg/mL
- MIC90 [4, 8]: >32/>32 μg/mL
- % susceptible, [S] [4, 8]: (1.3) %
- Minimum Inhibitory Concentration Distribution, % of isolates ([5]; MIC 0.125 μg/mL): 0.2%
- Minimum Inhibitory Concentration Distribution, % of isolates ([5]; MIC 0.25 μg/mL): 2.8%
- Minimum Inhibitory Concentration Distribution, % of isolates ([5]; MIC 0.5 μg/mL): 56.2%
- Minimum Inhibitory Concentration Distribution, % of isolates ([5]; MIC 1 μg/mL): 77.4%
- Minimum Inhibitory Concentration Distribution, % of isolates ([5]; MIC 2 μg/mL): 85.2%
- Minimum Inhibitory Concentration Distribution, % of isolates ([5]; MIC 4 μg/mL): 90.4%
- Minimum Inhibitory Concentration Distribution, % of isolates ([5]; MIC 8 μg/mL): 92.2%
- Minimum Inhibitory Concentration Distribution, % of isolates ([5]; MIC 16 μg/mL): 93.0%
- Minimum Inhibitory Concentration Distribution, % of isolates ([5]; MIC 32 μg/mL): 93.2%
- Minimum Inhibitory Concentration Distribution, % of isolates ([5]; MIC >32 μg/mL): 100.0%
- Minimum Inhibitory Concentration Distribution, % of isolates ([5]; MIC ≤0.06 μg/mL): 0.2%
- % susceptible, [S] ([5]; PA (CAZ-AVI MIC >8) (37)): (18.2) %
- % susceptible, [S] ([5]; PA (Challenge, 652)): (44.0) %
- % susceptible, [S] ([5]; PA (MER MIC >2) (612)): (56.2) %
- % susceptible, [S] ([5]; PA (Representative, 500)): (90.4) %
- % susceptible, [S] ([5]; PA (TOL-TAZ MIC >4) (39)): (3.3) %
- MIC50 ([5]; PA (CAZ-AVI MIC >8) (37)): > 32 µg/mL
- MIC90 ([5]; PA (CAZ-AVI MIC >8) (37)): > 32 µg/mL
- MIC50 ([5]; PA (Challenge, 652)): 16 µg/mL
- MIC90 ([5]; PA (Challenge, 652)): > 32 µg/mL
- MIC50 ([5]; PA (MER MIC >2) (612)): 4 µg/mL
- MIC90 ([5]; PA (MER MIC >2) (612)): > 32 µg/mL
- MIC50 ([5]; PA (Representative, 500)): 0.5 µg/mL
- MIC90 ([5]; PA (Representative, 500)): 4 µg/mL
- MIC50 ([5]; PA (TOL-TAZ MIC >4) (39)): > 32 µg/mL
- MIC90 ([5]; PA (TOL-TAZ MIC >4) (39)): > 32 µg/mL
- MIC50 ([1]; CRE KPC, N = 168): > 32 µg/mL
- MIC90 ([1]; CRE KPC, N = 168): > 32 µg/mL
- MIC50 ([1]; CRE MBL, N = 145): > 32 µg/mL
- MIC90 ([1]; CRE MBL, N = 145): > 32 µg/mL
- MIC50 ([1]; CRE OXA, N = 152): > 32 µg/mL
- MIC90 ([1]; CRE OXA, N = 152): > 32 µg/mL
- MIC50 [1, 7]: > 32 µg/mL
- MIC90 [1, 7]: > 32 µg/mL
- MIC50 [2]: > 32 µg/mL
- MIC90 [2]: > 32 µg/mL

SMILES: O=C(O)c1c(F)ccc2c1OB(O)[C@@H]1C[C@H]21 [Compound 1, 5-Fluoro-2-hydroxy-1a,7b-dihydro-1H-cyclopropa[c][1,2]benzoxaborinine-4-carboxylic acid]
- Effect on proportion of susceptible P. aeruginosa ([3]; 262 strains with meropenem MIC >2 μg/mL): increased the proportion of susceptible organisms for all tested agents
- Effect on potency of meropenem, cefepime and ceftolozane (MIC distribution, FIG. 2) [6]: significantly increased potency of all tested antibiotics
- Effect on MIC90 of antibiotics ([1]; Compound 1 at 4 and 8 μg/ml, 510 CRE clinical isolates): shifted MIC90 of all antibiotics (except ceftolozane tested against metallo beta-lactamases, MBL) into susceptible range
- Effect on potency of antibiotics ([2]; Compound 1 at 4 and 8 μg/ml, 503 carbapenem resistant A. baumannii isolates): significantly enhances the potency of meropenem and cefiderocol
